Calls of active or inactive are those of the source. The rule behind the calls is not given here.
How the values were obtained:
[1] = Apparent volume of distribution in rat at 10 mg/kg, iv measured after 24 hrs by LC-MS/MS analysis; type: ADME, organism-based; conditions: in vivo, read-out: Vz
BGC-823 [2] = assay: Induction of apoptosis in human BGC-823 cells assessed as early apoptotic cells at 0.5 uM incubated for 48 hrs by Annexin V-FITC/PI staining based flow cytometric analysis ( Rvb = 1.68 %); type: functional
Cell membrane [3] = assay: Induction of mitochondrial membrane potential loss in human BGC-823 cells assessed as increase in number of cells with J-monomers by measuring green fluorescence at 1 uM incubated for 24 hrs by JC-1 staining based flow cytometric analysis (reference value: 0.33%); type: cell membranes
BGC-823 [4] = assay: Induction of apoptosis in human BGC-823 cells assessed as late apoptotic cells at 1 uM incubated for 48 hrs by Annexin V-FITC/PI staining based flow cytometric analysis ( Rvb = 5.61 %); type: functional
BGC-823 [5] = assay: Induction of apoptosis in human BGC-823 cells assessed as late apoptotic cells at 0.5 uM incubated for 48 hrs by Annexin V-FITC/PI staining based flow cytometric analysis ( Rvb = 5.61 %); type: functional
[6] = AUC (0 to t) in rat at 10 mg/kg, iv measured after 24 hrs by LC-MS/MS analysis; type: ADME, organism-based; conditions: in vivo
Cell membrane [7] = assay: Induction of mitochondrial membrane potential loss in human BGC-823 cells assessed as increase in number of cells with J-monomers by measuring green fluorescence at 1 uM incubated for 24 hrs in presence of NAC by JC-1 staining based flow cytometric analysis (reference value: 0.33%); type: cell membranes
BGC-823 [8] = assay: Induction of ROS generation in human BGC-823 cells assessed as cells with green fluorescence at 0.5 uM incubated for 24 hrs by DCFH-DA staining based analysis relative to control; type: functional
BGC-823 [9] = assay: Induction of apoptosis in human BGC-823 cells assessed as viable cells at 1 uM incubated for 48 hrs by Annexin V-FITC/PI staining based flow cytometric analysis ( Rvb = 90.09 %); type: functional; conditions: read-out: Activity
BGC-823 [10] = assay: Induction of ROS generation in human BGC-823 cells assessed as cells with green fluorescence at 0.25 uM incubated for 24 hrs in presence of NAC by DCFH-DA staining based analysis relative to control; type: functional
BGC-823 [11] = assay: Induction of ROS generation in human BGC-823 cells assessed as cells with green fluorescence at 1 uM incubated for 24 hrs by DCFH-DA staining based analysis relative to control; type: functional
BGC-823 [12] = assay: Cell cycle arrest in human BGC-823 cells assessed as accumulation of cells at G2/M phase incubated for 24 hrs by PI staining based flow cytometric analysis; type: functional
[13] = GSH reactivity in human BGC-823 cells assessed as GSSG/GSH ratio at 0.4 uM incubated for 24 hrs by microplate reader analysis (reference value: 0.34); type: ADME, cell-based; conditions: bgc-823, 24 h
[14] = Cmax in rat at 10 mg/kg, ip measured after 24 hrs by LC-MS/MS analysis; type: ADME, organism-based; conditions: in vivo
[15] = AUC (0 to infinity) in rat at 10 mg/kg, iv measured after 24 hrs by LC-MS/MS analysis; type: ADME, organism-based; conditions: in vivo
Cell membrane [16] = assay: Induction of mitochondrial membrane potential loss in human BGC-823 cells assessed as decrease in number of cells with J-aggregates by measuring red fluorescence at 0.25 uM incubated for 24 hrs by JC-1 staining based flow cytometric analysis (reference value: 99.7 %); type: cell membranes; parameters: scale not given: the % may be the effect or the level left
BGC-823 [17] = assay: Induction of apoptosis in human BGC-823 cells assessed as necrotic cells at 0.5 uM incubated for 48 hrs by Annexin V-FITC/PI staining based flow cytometric analysis ( Rvb = 1.79 %); type: functional
[18] = Half-life in rat at 10 mg/kg, iv measured after 24 hrs by LC-MS/MS analysis; type: ADME, organism-based; conditions: in vivo
[19] = Cmax in rat at 10 mg/kg, iv measured after 24 hrs by LC-MS/MS analysis; type: ADME, organism-based; conditions: in vivo
BGC-823 [20] = assay: Induction of apoptosis in human BGC-823 cells assessed as necrotic cells at 0.25 uM incubated for 48 hrs by Annexin V-FITC/PI staining based flow cytometric analysis ( Rvb = 1.79 %); type: functional
[21] = AUC (0 to infinity) in rat at 10 mg/kg, ip measured after 24 hrs by LC-MS/MS analysis; type: ADME, organism-based; conditions: in vivo
[22] = Apparent volume of distribution in rat at 10 mg/kg, ip measured after 24 hrs by LC-MS/MS analysis; type: ADME, organism-based; conditions: in vivo
BGC-823 [23] = assay: Induction of apoptosis in human BGC-823 cells assessed as late apoptotic cells at 0.25 uM incubated for 48 hrs by Annexin V-FITC/PI staining based flow cytometric analysis ( Rvb = 5.61 %); type: functional
Cell membrane [24] = assay: Induction of mitochondrial membrane potential loss in human BGC-823 cells assessed as increase in number of cells with J-monomers by measuring green fluorescence at 0.25 uM incubated for 24 hrs by JC-1 staining based flow cytometric analysis (reference value: 0.33%); type: cell membranes
Cell membrane [25] = assay: Induction of mitochondrial membrane potential loss in human BGC-823 cells assessed as decrease in number of cells with J-aggregates by measuring red fluorescence at 1 uM incubated for 24 hrs in presence of NAC by JC-1 staining based flow cytometric analysis (reference value: 99.7 %); type: cell membranes; parameters: scale not given: the % may be the effect or the level left
[26] = AUC (0 to t) in rat at 10 mg/kg, ip measured after 24 hrs by LC-MS/MS analysis; type: ADME, organism-based; conditions: in vivo
[27] = Half-life in rat at 10 mg/kg, ip measured after 24 hrs by LC-MS/MS analysis; type: ADME, organism-based; conditions: in vivo
BGC-823 [28] = assay: Induction of apoptosis in human BGC-823 cells assessed as viable cells at 0.5 uM incubated for 48 hrs by Annexin V-FITC/PI staining based flow cytometric analysis ( Rvb = 90.09 %); type: functional; conditions: read-out: Activity
Cell membrane [29] = assay: Induction of mitochondrial membrane potential loss in human BGC-823 cells assessed as decrease in number of cells with J-aggregates by measuring red fluorescence at 0.5 uM incubated for 24 hrs by JC-1 staining based flow cytometric analysis (reference value: 99.7 %); type: cell membranes; parameters: scale not given: the % may be the effect or the level left
Cell membrane [30] = assay: Induction of mitochondrial membrane potential loss in human BGC-823 cells assessed as increase in number of cells with J-monomers by measuring green fluorescence at 0.5 uM incubated for 24 hrs by JC-1 staining based flow cytometric analysis (reference value: 0.33%); type: cell membranes
BGC-823 [31] = assay: Induction of apoptosis in human BGC-823 cells assessed as viable cells at 0.25 uM incubated for 48 hrs by Annexin V-FITC/PI staining based flow cytometric analysis ( Rvb = 90.09 %); type: functional; conditions: read-out: Activity
[32] = Binding affinity to DTT in PBS assessed as UV peak appearance at 288 nm at 360 uM by UV-Vis spectra analysis
BGC-823 [33] = assay: Induction of apoptosis in human BGC-823 cells assessed as necrotic cells at 1 uM incubated for 48 hrs by Annexin V-FITC/PI staining based flow cytometric analysis ( Rvb = 1.79 %); type: functional
[34] = Clearance in rat at 10 mg/kg, iv measured after 24 hrs by LC-MS/MS analysis; type: ADME, organism-based; conditions: in vivo
BGC-823 [35] = assay: Induction of apoptosis in human BGC-823 cells assessed as early apoptotic cells at 1 uM incubated for 48 hrs by Annexin V-FITC/PI staining based flow cytometric analysis ( Rvb = 1.68 %); type: functional
BGC-823 [36] = assay: Induction of ROS generation in human BGC-823 cells assessed as cells with green fluorescence at 0.25 uM incubated for 24 hrs by DCFH-DA staining based analysis relative to control; type: functional
Cell membrane [37] = assay: Induction of mitochondrial membrane potential loss in human BGC-823 cells assessed as decrease in number of cells with J-aggregates by measuring red fluorescence at 1 uM incubated for 24 hrs by JC-1 staining based flow cytometric analysis (reference value: 99.7 %); type: cell membranes; parameters: scale not given: the % may be the effect or the level left
[38] = Clearance in rat at 10 mg/kg, ip measured after 24 hrs by LC-MS/MS analysis; type: ADME, organism-based; conditions: in vivo
BGC-823 [39] = assay: Induction of apoptosis in human BGC-823 cells assessed as early apoptotic cells at 0.25 uM incubated for 48 hrs by Annexin V-FITC/PI staining based flow cytometric analysis ( Rvb = 1.68 %); type: functional

## CC1(C)CC[C@]2(C(=O)OCCCCOC(=O)c3ccc(O)cc3)CC[C@]3(C)[C@H](C(=O)C=C4[C@@]5(C)C=C(C#N)C(=O)C(C)(C)[C@@H]5CC[C@]43C)[C@@H]2C1
[1]
  Vd: 3.99 L/kg
BGC-823 [2]
  Activity: 3.44%
Cell membrane [3]
  Activity: 77.4%
BGC-823 [4]
  Activity: 30.4%
BGC-823 [5]
  Activity: 16.1%
[6]
  AUC(0-t) at 24 h: 20000 ng·h/mL
Cell membrane [7]
  Activity: 3.14%
BGC-823 [8]
  Activity: 61.6%
BGC-823 [9]
  viability at 1 µM: 50.1%
BGC-823 [10]
  Activity: 67.2%
BGC-823 [11]
  Activity: 95.3%
BGC-823 [12]
  Activity: Dose-Dependent Effect
[13]
  Ratio: 1.08
[14]
  Cmax: 881 ng/mL
[15]
  AUC(0-inf): 20200 ng·h/mL
Cell membrane [16]
  Activity: 97.8%
BGC-823 [17]
  Activity: 5.79%
[18]
  half-life: 5.4 h
[19]
  Cmax: 19000 ng/mL
BGC-823 [20]
  Activity: 0.49%
[21]
  AUC: 1163 ng·h/mL
[22]
  Vz: 20.63 L/kg
BGC-823 [23]
  Activity: 5.9%
Cell membrane [24]
  Activity: 2.06%
Cell membrane [25]
  Activity: 96.7%
[26]
  AUCt: 7310 ng·h/mL
[27]
  half-life: 16.5 h
BGC-823 [28]
  viability at 0.5 µM: 74.7%
Cell membrane [29]
  Activity: 84.2%
Cell membrane [30]
  Activity: 15.4%
BGC-823 [31]
  viability at 0.25 µM: 90.6%
[32]
  Activity: Active
BGC-823 [33]
  Activity: 5.52%
[34]
  clearance: 8.4 mL/min/kg
BGC-823 [35]
  Activity: 14%
BGC-823 [36]
  Activity: 23.2%
Cell membrane [37]
  Activity: 24.5%
[38]
  CL: 14.4 mL/min/kg
BGC-823 [39]
  Activity: 3.01%

From ChEMBL document CHEMBL5576127, “New CDDO Arylboronate Ester Derivatives with High Selectivity and Low Toxicity” (J Med Chem, 2024)
